Data published in patent US10993951B2, “Fosfomycin formulation for parenteral administration” (priority 2016, dated 2021).
Converted amounts (≈) assume the structure as drawn. Read-outs that look alike come from different tables or passages of the source.

Legend:
Assay type in all cases: cell-based
[1] = tested on: Staphylococcus hominis AG 1115; assay: MIC by tube dilution in microtiter plates, stored fosfomycin solution; settings: AG1115, storage temp. −80 °C, read-out: minimal inhibitory concentration (MIC)
Source text: (§1) The objective of the present investigation was to find out whether the antimicrobial activity of fosfomycin with a pH suitable for intravenous administration is maintained in a solvent suitable for intravenous use. For this, fosfomycin disodium (14.5 mmol sodium/g) and succinic acid were used to adjust the pH (0.025 grams of succinic acid per gram of fosfomycin).
(§2) A stock solution of 4 g of fosfomycin disodium and succinic acid (0.025 grams of succinic acid per gram of fosfomycin, corresponding to about 3 g of fosfomycin) in 10 ml distilled water was prepared and divided into 5 cryotubes at 2 ml each, and the solution was exposed at different temperatures as follows:
(§3) Aliquots of 2 ml of the sample were stored at −80° C., at refrigerator temperature (2-8° C.), at room temperature (20-25° C.), and at 45-65° C. until the test end. Another 2 ml of the stock solution were stored at refrigerator temperature (2-8° C.) and autoclaved before the tests at 125° C. for 30 minutes. After that, all samples were tested for their antimicrobioal activity.
(§4) To determine the antimicrobial activity of fosfomycin, the minimal inhibitory concentration (MIC) of the 4 mentioned bacteria strains was determined by a tube dilution method in microtiter plates using Mueller-Hinton broth. For the inoculation of the microtiter plates, the inoculum was adjusted to 1.5×104 germs/ml. The evaluation was made after 24 hours of incubation at 37° C.
(§5) Samples were taken, starting with 2,000 μg/ml test substance, diluted by a factor 2. Serial dilutions of 2,000 μg/ml to […] were prepared.

[2] = tested on: Escherichia coli AG 1215; assay: as above; settings: read-out: minimal inhibitory concentration (MIC)
Source text: as §1, §2, §3, §4, §5

[3] = tested on: Staphylococcus aureus ATTC 49775; assay: as above; settings: read-out: minimal inhibitory concentration (MIC)
Source text: as §1, §2, §3, §4, §5

[4] = tested on: Staphylococcus aureus ATTC 49775; assay: as above; settings: read-out: minimal inhibitory concentration (MIC); remark: listed apart in the source
[5] = tested on: tested bacteria such as Staphylococcus and Escherichia; assay: Stability studies: antimicrobial activity kept on storage; settings: aqueous solution with an acid; after repeated autoclaving at 125° C. and months of storage
Source text: as §1, §2, §3
as §4, with “The evaluation was made after 24 hours of incubation at 37° C.” left out

In the case of C[C@@H]1O[C@@H]1P(=O)(O)O [Fosfomycin, fosfomycin], the MIC ([1]; storage period 59 days) is reported as 15.6 µg/mL (≈ 113 µM), the MIC ([1]; storage period 64 days) is reported as 15.6 µg/mL (≈ 113 µM) and the MIC ([1]; storage period 92 days) is reported as 15.6 µg/mL (≈ 113 µM). For the same compound, the MIC ([2]; AG1215, 0 h, storage temp. 4-8 °C, storage period 0 days) was 62.5 µg/mL (≈ 453 µM), the MIC ([2]; AG1215, 0 h, storage temp. 20-25 °C, storage period 0 days) was 250 µg/mL (≈ 1810 µM) and the MIC ([2]; AG1215, 0 h, storage temp. 45-65 °C, storage period 0 days) was 62.5 µg/mL (≈ 453 µM). It also gave an MIC ([2]; AG1215, 0 h, storage temp. −80 °C, storage period 0 days) of 62.5 µg/mL (≈ 453 µM), an MIC ([2]; AG1215, 125 °C (refrigerator storage, autoclaved 30 minutes before tests), storage period 0 days) of 125 µg/mL (≈ 905 µM) and an MIC ([2]; AG1215, 125 °C (refrigerator storage, autoclaved 30 minutes before tests), storage period 19 days) of 125 µg/mL (≈ 905 µM). The MIC ([2]; AG1215, 125 °C (refrigerator storage, autoclaved 30 minutes before tests), storage period 27 days) was 62.5 µg/mL (≈ 453 µM), the MIC ([2]; AG1215, 125 °C (refrigerator storage, autoclaved 30 minutes before tests), storage period 59 days) was 31.2 µg/mL (≈ 226 µM) and the MIC ([2]; AG1215, 125 °C (refrigerator storage, autoclaved 30 minutes before tests), storage period 64 days) was 62.5 µg/mL (≈ 453 µM). It also gave an MIC ([2]; AG1215, 125 °C (refrigerator storage, autoclaved 30 minutes before tests), storage period 92 days) of 125 µg/mL (≈ 905 µM), an MIC ([2]; AG1215, 456 h, storage temp. 4-8 °C, storage period 19 days) of 62.5 µg/mL (≈ 453 µM) and an MIC ([2]; AG1215, 456 h, storage temp. 20-25 °C, storage period 19 days) of 125 µg/mL (≈ 905 µM). For the same compound, the MIC ([2]; AG1215, 456 h, storage temp. 45-65 °C, storage period 19 days) was 250 µg/mL (≈ 1810 µM), the MIC ([2]; AG1215, 456 h, storage temp. −80 °C, storage period 19 days) was 125 µg/mL (≈ 905 µM) and the MIC ([2]; AG1215, 648 h, storage temp. 20-25 °C, storage period 27 days) was 31.2 µg/mL (≈ 226 µM). The MIC ([2]; AG1215, 648 h, storage temp. 45-65 °C, storage period 27 days) was 31.2 µg/mL (≈ 226 µM), the MIC ([2]; AG1215, 648 h, storage temp. −80 °C, storage period 27 days) was 62.5 µg/mL (≈ 453 µM) and the MIC ([2]; AG1215, storage temp. 4-8 °C, storage period 92 days) was 62.5 µg/mL (≈ 453 µM). The MIC ([2]; AG1215, storage temp. 20-25 °C, storage period 59 days) was 31.2 µg/mL (≈ 226 µM), the MIC ([2]; AG1215, storage temp. 20-25 °C, storage period 64 days) was 31.2 µg/mL (≈ 226 µM) and the MIC ([2]; AG1215, storage temp. 20-25 °C, storage period 92 days) was 125 µg/mL (≈ 905 µM). The MIC ([2]; AG1215, storage temp. 45-65 °C, storage period 59 days) was 62.5 µg/mL (≈ 453 µM), the MIC ([2]; AG1215, storage temp. 45-65 °C, storage period 64 days) was 62.5 µg/mL (≈ 453 µM) and the MIC ([2]; AG1215, storage temp. 45-65 °C, storage period 92 days) was 125 µg/mL (≈ 905 µM). It also gave an MIC ([2]; AG1215, storage temp. −80 °C, storage period 59 days) of 15.6 µg/mL (≈ 113 µM), an MIC ([2]; AG1215, storage temp. −80 °C, storage period 64 days) of 62.5 µg/mL (≈ 453 µM) and an MIC ([2]; AG1215, storage temp. −80 °C, storage period 92 days) of 62.5 µg/mL (≈ 453 µM). It also gave an MIC ([3]; ATTC49775, 0 h, storage temp. 20-25 °C, storage period 0 days) of 3.9 µg/mL (≈ 28.2 µM), an MIC ([3]; ATTC49775, 0 h, storage temp. 45-65 °C, storage period 0 days) of 7.8 µg/mL (≈ 56.5 µM) and an MIC ([3]; ATTC49775, 0 h, storage temp. −80 °C, storage period 0 days) of 7.8 µg/mL (≈ 56.5 µM). For the same compound, the MIC ([3]; ATTC49775, 125 °C (refrigerator storage, autoclaved 30 minutes before tests), storage period 0 days) was 15.6 µg/mL (≈ 113 µM), the MIC ([3]; ATTC49775, 125 °C (refrigerator storage, autoclaved 30 minutes before tests), storage period 19 days) was 7.8 µg/mL (≈ 56.5 µM) and the MIC ([3]; ATTC49775, 125 °C (refrigerator storage, autoclaved 30 minutes before tests), storage period 31 days) was 7.8 µg/mL (≈ 56.5 µM). It also gave an MIC ([3]; ATTC49775, 456 h, storage temp. 20-25 °C, storage period 19 days) of 15.6 µg/mL (≈ 113 µM), an MIC ([3]; ATTC49775, 456 h, storage temp. 45-65 °C, storage period 19 days) of 7.8 µg/mL (≈ 56.5 µM) and an MIC ([3]; ATTC49775, 456 h, storage temp. −80 °C, storage period 19 days) of 3.9 µg/mL (≈ 28.2 µM). For the same compound, the MIC ([3]; ATTC49775, storage temp. 20-25 °C, storage period 31 days) was 15.6 µg/mL (≈ 113 µM), the MIC ([3]; ATTC49775, storage temp. 45-65 °C, storage period 31 days) was 7.8 µg/mL (≈ 56.5 µM) and the MIC ([3]; ATTC49775, storage temp. −80 °C, storage period 31 days) was 3.9 µg/mL (≈ 28.2 µM). For the same compound, the MIC ([4]; ATTC49775, 0 h, storage temp. 4-8 °C, storage period 0 days) was 7.8 µg/mL (≈ 56.5 µM), the MIC ([4]; ATTC49775, 456 h, storage temp. 4-8 °C, storage period 19 days) was 3.9 µg/mL (≈ 28.2 µM) and the MIC ([4]; ATTC49775, storage temp. 4-8 °C, storage period 31 days) was 3.9 µg/mL (≈ 28.2 µM). For the same compound, the “effectiveness against the tested bacteria after storage” value [5] was “effective”.
